Measurements from patent publication US12178840B2, “Method and compositions comprising a CT20 peptide” (UNIVERSITY OF CENTRAL FLORIDA RESEARCH FOUNDATION, INC., priority 2014, dated 2024).
Residues, ends and D or L forms follow the SMILES beside them.

Assays:
[1] = tested on: MDA-MB-231 subcutaneous tumors; experiment: Tumor growth in mice bearing subcutaneous MDA-MB-231 tumors, nanoparticle treatment; format: in vivo
Source text: Referring to FIG. 2A, the graph summarizes the results with FOL-NPs that were empty, contained Doxorubicin (DOX), or CT20, and are compared to COOH-NPs with CT20. Referring to FIG. 2B, representative ultrasound data is shown from mice treated with PBS or FOL-CT20-NPs. Arrows indicate treatment times. *p<0.05.
To test the ability of CT20 to inhibit tumor growth, HBPE-NPs were modified with folate (FOL) to target the folate receptor (FR) (Boohaker, R. J., et al. (2012) Mol. Pharm. 7, 2080-2093; Lee, M. W., et al. (2014) Cell Death Dis. 5). FR targeting enabled concentration of the HBPE-NPs in murine tumors during systemic delivery. FIG. 2 is a representative animal experiment in which MDA-MB-231 cells were used to form subcutaneous tumors. Mice (n=5) were treated with two subcutaneous injections of nanoparticles (2 mg/kg/dose) over a five week period. […] Referring to FIG. 2B, representative ultrasound data is shown from mice treated with PBS or FOL-CT20-NPs. Arrows indicate treatment times. *p<0.05.

MDA-MB-231 cells = experiment: Migration assay (Oris exclusion zone); format: cell-based, human; conditions: 24 hours treatment, 10 hours migration
Method: Migration assay: The Oris cell migration assembly kit (Platypus Technologies) was used. Cells were stained with CellTrace Violet (Life Technologies) according to manufacturer's protocol. Stoppers were placed in wells of a 96-well plate before cells were seeded at a density of 30,000 cells per well. For experiments involving CT20p treatment, treatments with CT20p were began 18 hours following seeding and allowed to continue for 24 hours. Treatments were done in quadruplicate. At the end of the treatment period, stoppers were removed to create an exclusion zone that the cells would migrate into. MDA-MB-231 cells were allowed to migrate for 10 hours. MCF-10A and MCF-10A EMT cells were allowed to migrate for 20 hours. Following the migration period, fluorescent images were obtained using a Plate Runner HD (Trophos). […] Images were analyzed by ImageJ software (NIH) by using the wand tool to automatically define and measure the migration zone. % closure was calculated as [(pre migration area−migration area)/pre migration area]×100.
Observations on the effects of CT20p on breast cancer cells include loss of actin distribution throughout the cell, especially in the filapodia (FIG. 3C). […] Immediately following removal of the stoppers, the pre-migration area can be determined. […] After quantification of the areas as described in Materials & Methods, % closure was calculated for each condition (FIG. 11B). […]

[2] = tested on: TNBC cell lines and MCF-10A; experiment: Metabolic stress tests (Seahorse, oxygen consumption and extracellular acidification); format: cell-based, human; conditions: 75 ug/mL for 24 hours before the assay
Method: Measurement of oxygen consumption and extracellular acidification: 24-well culture plates for use with the Seahorse XFe24 analyzer were coated with Cell-Tak (BD Bioscience) at 3.5 ug/cm2. Cells were then seeded at 60,000 cells/well and allowed to adhere overnight. Measurements of oxygen consumption rate and extracellular acidification rate were obtained using a Seahorse XFe 24 analyzer (Seahorse Bioscience). To obtain mitochondrial metabolic profiles, injections of oligomycin (1 uM), FCCP (0.3 uM), rotenone (0.1 uM), and antimycin A (2 uM) were performed. The mitochondrial coupling efficiency was calculated as: [1−(minimum oligomycin response/final basal measurement)]×100. To obtain glycolytic metabolic profiles, injections of glucose (10 mM), oligomycin (1 uM), and 2-deoxy-D-glucose (100 mM) were performed. Glycolytic reserve capacity was calculated as: maximum oligomycin response−maximum glucose response. […] Metabolic capacity was defined as the maximum recorded measurement in both mitochondrial and glycolytic contexts. CT20p-treated results were calculated as a percentage of untreated results.
The effect of CT20p on cellular metabolism was also examined by pre-treating the cells with CT20p prior to running metabolic stress tests. Glycolytic capacity (FIG. 6C) and respiration capacity (FIG. 6F) were calculated for treated cells with respect to untreated cells.

[3] = tested on: cells isolated from primary breast tumors; experiment: Lethality in cells isolated from primary breast tumors; format: cell-based, human; conditions: CT20 peptide in HBPE-NPs
Source text: 40× magnification. CCTβ was detected in invasive breast cancer.
The lethality of CT20 was also examined in cells isolated from primary breast tumors and paired normal tissue. […] To this end, the levels of CCTβ were examined in a pilot tissue array of breast cancer tissue cores by immunohistochemistry (IHC) and detected CCTβ in invasive breast cancer (FIG. 14B).

CC[C@H](C)[C@H](NC(=O)[C@@H](NC(=O)[C@H](CC(C)C)NC(=O)[C@H](CO)NC(=O)[C@H](C)NC(=O)[C@@H](NC(=O)[C@H](CC(C)C)NC(=O)[C@@H](NC(=O)CNC(=O)[C@H](C)NC(=O)[C@@H](NC(=O)[C@H](Cc1ccccc1)NC(=O)[C@@H](NC(=O)[C@@H](NC(=O)[C@@H](NC(C)=O)C(C)C)[C@@H](C)O)[C@@H](C)CC)C(C)C)C(C)C)[C@@H](C)O)[C@@H](C)O)C(=O)N[C@@H](Cc1c[nH]c2ccccc12)C(=O)N[C@@H](CCCCN)C(=O)N[C@@H](CCCCN)C(=O)N[C@@H](CCSC)C(=O)NCC(N)=O [CT20] (Ac-VTIFVAGVLTASLTIWKKMG-NH2)
Effectiveness compared with Doxorubicin ([1]; CT20 delivered in HBPE-NPs): as effective, if not more, than drugs such as Doxorubicin | Inhibition of tumor growth ([1]; two subcutaneous injections of nanoparticles (2 mg/kg/dose) over five weeks): caused tumor regression | Effect on migration (% closure of exclusion zone) (MDA-MB-231 cells; 75 μg/mL): significantly impaired movement | Effect on migration (% closure of exclusion zone) (MDA-MB-231 cells; 150 μg/mL): nearly eliminated | Metabolic responses (glycolytic capacity, respiration capacity) that could explain the cytotoxicity pattern [2]: None of the cell lines displayed metabolic responses | Lethality [3]: killed the tumor cells
